# Measurements as given in patent US10239859B2, “Nitrogen-containing heterocycles as pesticides” (Bayer CropScience Aktiengesellschaft, priority 2015, dated 2019).
# Like-named read-outs stand apart in the source and are kept apart here.
# What was measured:
# [1] = log P determination by HPLC on reversed-phase C18 columns (OECD Guideline 117); format: physicochemical
# Protocol: The log P values were determined in accordance with OECD Guideline 117 (EC Directive 92/69/EEC) by HPLC (high-performance liquid chromatography) using reversed-phase (RP) columns (C18), by the following methods:
# [a] The LC-MS determination in the acidic range is effected at pH 2.7 with 0.1% aqueous formic acid and acetonitrile (contains 0.1% formic acid) as eluents; linear gradient from 10% acetonitrile to 95% acetonitrile.
# [b] LC-MS determination in the neutral range is effected at pH 7.8 with 0.001 molar aqueous ammonium hydrogencarbonate solution and acetonitrile as eluents; linear gradient from 10% acetonitrile to 95% acetonitrile.
# Myzus persicae = Myzus persicae spray test (Chinese cabbage leaf discs); format: in vivo; details: after 6 days
# Protocol: Myzus persicae—Spray Test
# Solvent: 78 parts by weight of acetone • • 1.5 parts by weight of dimethylformamide
# (§1) Emulsifier: alkylaryl polyglycol ether
# (§2) To produce a suitable active compound preparation, 1 part by weight of active compound is dissolved with the stated parts by weight of solvent and made up with water containing an emulsifier concentration of 1000 ppm until the desired concentration is attained. To produce further test concentrations, the preparation is diluted with emulsifier-containing water.
# Discs of Chinese cabbage leaves (Brassica pekinensis) infested by all stages of the green peach aphid (Myzus persicae) are sprayed with an active compound preparation of the desired concentration.
# After 6 days, the efficacy in % is determined. 100% means that all the aphids have been killed; 0% means that no aphids have been killed.
# Phaedon cochleariae = Phaedon cochleariae spray test; format: in vivo; details: 500 g/ha, larvae on Chinese cabbage leaf discs, after 7 days
# Protocol: Phaedon cochleariae—Spray Test
# (§3) Solvent: 78.0 parts by weight of acetone • • 1.5 parts by weight of dimethylformamide
# as §1, §2
# After 7 days, the efficacy in % is determined. 100% means that all the beetle larvae have been killed; 0% means that no beetle larvae have been killed.
# Lucilia cuprina = Lucilia cuprina test; format: in vivo; details: 100 ppm, L1 larvae, after 2 days
# Protocol: (§4) Solvent: dimethyl sulphoxide
# To produce a suitable active compound preparation, 10 mg of active compound are mixed with 0.5 ml of dimethyl sulphoxide, and the concentrate is diluted with water to the desired concentration.
# About 20 L1 larvae of the Australian sheep blowfly (Lucilia cuprina) are transferred into a test vessel containing minced horsemeat and the active compound preparation of the desired concentration.
# After 2 days, the kill in % is determined. 100% means that all the larvae have been killed; 0% means that no larvae have been killed.
# Ctenocephalides felis = Ctenocephalides felis oral test; format: in vivo; details: 100 ppm in citrated cattle blood, adult cat fleas, after 2 days
# Protocol: Ctenocephalides felis—Oral Test
# as §4
# To produce a suitable active compound preparation, 10 mg of active compound are mixed with 0.5 ml of dimethyl sulphoxide. Dilution with citrated cattle blood gives the desired concentration.
# About 20 unfed adult cat fleas (Ctenocephalides felis) are placed into a chamber which is closed at the top and bottom with gauze. A metal cylinder whose bottom end is closed with parafilm is placed onto the chamber. The cylinder contains the blood/active compound preparation, which can be imbibed by the fleas through the parafilm membrane.
# After 2 days, the kill in % is determined. 100% means that all of the fleas have been killed; 0% means that none of the fleas have been killed.
# Tetranychus urticae = Tetranychus urticae spray test, OP-resistant; format: in vivo; details: 500 g/ha, bean leaf discs, after 6 days
# Protocol: Tetranychus urticae—Spray Test, OP-Resistant
# as §3, §1, §2
# Discs of bean leaves (Phaseolus vulgaris) infested with all stages of the greenhouse red spider mite (Tetranychus urticae) are sprayed with an active compound preparation of the desired concentration.
# After 6 days, the efficacy in % is determined. 100% means that all the spider mites have been killed; 0% means that no spider mites have been killed.
# [2] = reversed-phase C18 HPLC column, neutral range, pH 7.8, 0.001 molar aqueous ammonium hydrogencarbonate / acetonitrile, read-out: LogP value (neutral)
# [3] = reversed-phase C18 HPLC column, acidic range, pH 2.7, 0.1% aqueous formic acid / acetonitrile, read-out: logP value (HCOOH)
molecule,measurement,setting,value
"S=c1ccccn1-c1ccc(-n2cnc(Cl)n2)nc1 [VI-5, 6′-(3-Chloro-1,2,4-triazol-1-yl)-[1(2H), 3′-bipyridine]-2-thione]",chromatographic logP,[1]; [2],1.58
"N#Cc1cccn(-c2ccc(Cl)nc2)c1=O [IV-4, 1,2-Dihydro-2-oxo-1-(6-chloropyridin-3-yl)-3-pyridinecarbonitrile]",chromatographic logP,[1]; [3],1
"O=c1ccccn1-c1ccc(C(F)(C(F)(F)F)C(F)(F)F)nc1 [IV-32, 6′-(1,1,1,2,3,3,3-Heptafluoropropyl)-[1(2H), 3′-bipyridin]-2-one]",chromatographic logP,[1]; [3],2.4
"Cc1ccc(-n2cccc/c2=N\C#N)cn1 [Example 3, [1-[6-Methylpyridin-3-yl]-2(1H)-pyridinylidene]cyanamide]",chromatographic logP,[1]; [3],0.46
same,efficacy,Myzus persicae; 100 g/ha,90%
same,efficacy,Phaedon cochleariae,100%
"FC(F)(F)c1ccc(-n2ccccc2=S)cn1 [VI-2, 6′-trifluoromethyl-[1(2H),3′-bipyridine]-2-thione]",chromatographic logP,[1]; [3],1.7
O=C(/N=c1\ccccn1-c1ccc(C(F)(F)F)nc1)C(F)(F)F [Example 7],chromatographic logP,[1]; [3],2.19
same,efficacy,Myzus persicae; 500 g/ha,100%
same,efficacy (kill),Lucilia cuprina,95%
"N#C/N=c1\ccccn1-c1ccc(C(F)(F)F)nc1 [Example 1, [1-[6-Trifluoromethylpyridin-3-yl]-2(1H)-pyridinylidene]cyanamide]",efficacy,Myzus persicae; 500 g/ha,100%
same,efficacy (kill),Lucilia cuprina,100%
same,efficacy (kill),Ctenocephalides felis,95%
same,efficacy,Phaedon cochleariae,100%
same,efficacy,Tetranychus urticae,100%
"Cc1ccc(-n2ccccc2=S)cn1 [VI-1, 6′-Methyl-[1(2H),3′-bipyridine]-2-thione]",chromatographic logP,[1]; [3],0.51
[1-[[6-(3-Trifluoromethylpyrazol-1-yl)pyridin-3-yl]-2-(1H)-pyridinylidene]cyanamide [Example 25],LogP value (neutral),[1]; pH 7.8,2.23
"O=c1ccccn1-c1ccc(Cl)nc1 [IV-14, 6′-chloro-[1(2H),3′-bipyridin]-2-one]",chromatographic logP,[1]; [3],0.67
"O=C(/C=C1\C=CC=CN1c1ccc(C(F)(F)F)nc1)C(F)(F)F [Example 4, (3E)-3-[1-(6-Trifluoromethyl-3-pyridinyl)-2(1H)-pyridinylidene]-1,1,1-trifluoro-2-propanone]",chromatographic logP,[1]; [3],2.2
same,efficacy,Myzus persicae; 500 g/ha,90%
same,efficacy (kill),Lucilia cuprina,100%
"N#C/N=c1\ccccn1-c1ccc(Br)nc1 [Example 2, [1-[6-Bromopyridin-3-yl]-2(1H)-pyridinylidene]cyanamide]",chromatographic logP,[1]; [3],1.07
same,efficacy,Myzus persicae; 100 g/ha,90%
"O=c1ccccn1-c1ccc(C(F)(F)F)nc1 [IV-1, 6′-Trifluoromethyl-[1(2H),3′-bipyridin]-2-one]",chromatographic logP,[1]; [3],1.26
"N#C/N=c1\ccccn1-c1ccc(F)nc1 [Example 8, [1-[6-Fluoropyridin-3-yl]-2(1H)-pyridinylidene]cyanamide]",chromatographic logP,[1]; [3],0.7
same,efficacy,Myzus persicae; 500 g/ha,90%
same,efficacy,Phaedon cochleariae,100%
"N#C/N=c1\ccccn1-c1ccc(-n2cnc(Cl)n2)nc1 [Example 24, [1-[6-(3-Chloro-1,2,4-triazol-1-yl)pyridin-3-yl]-2-(1H)-pyridinylidene]cyanamide]",chromatographic logP,[1]; [2],1.39
"O=c1ccccn1-c1ccc(C(F)(F)C(F)(F)F)nc1 [IV-33, 6′-Pentafluoroethyl-[1(2H), 3′-bipyridin]-2-one]",chromatographic logP,[1]; [3],1.94
"O=c1ccccn1-c1ccc(Br)nc1 [IV-2, 6′-Bromo-[1(2H), 3′-bipyridin]-2-one]",chromatographic logP,[1]; [3],0.95
"O=c1ccccn1-c1ccc(C(F)(F)C(F)(F)C(F)(F)F)nc1 [IV-31, 6′-Heptafluoropropyl-[1(2H),3′-bipyridin]-2-one]",chromatographic logP,"[1]; acidic range, pH 2.7, 0.1% aqueous formic acid / acetonitrile, read-out: logP value (HCOOH)",2.26
"O=c1ccccn1-c1ccc(-n2cnc(Cl)n2)nc1 [IV-29, 6′-(3-Chloro-1,2,4-triazol-1-yl)-[1(2H), 3′-bipyridin]-2-one]",chromatographic logP,[1]; [3],1.23
